Structures can show the parent of a compound that is named as a salt.
Experiments:
[1] = system: bicalutamide resistant human prostate cancer cell line established from LNCaP.FGC (LNCaP-Bic); test: Growth inhibition of LNCaP-Bic cells, WST-8 assay; type: cell-based; settings: 120 h, 5 days with test compound
How it was run: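 Cells in RPMI 1640 with 10% FBS preincubated 24 h at 37 °C, 5% CO2, then exposed to compound for 5 days. WST-8 read-out, OD 450 minus 630 nm after cell-free blank subtraction; IC50 (nM) derived against untreated control growth.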

[2] = system: human prostate (carcinoma) cell line (LNCaP.FGC); test: Growth inhibition of LNCaP.FGC cells, WST-8 assay; type: cell-based; settings: 120 h, 5 days with test compound
How it was run: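 Bicalutamide-resistant LNCaP-Bic cells (and parental LNCaP.FGC) in RPMI 1640 + 10% FBS were preincubated 24 h at 37 °C, 5% CO2, then exposed to compound for 5 days. Growth read by WST-8, OD 450 nm minus 630 nm, cell-free blank subtracted; IC50 (nM) taken relative to untreated control.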

[3] = system: human prostate (adenocarcinoma) cell line (VcaP); test: Growth inhibition of VcaP cells, WST-8 assay; type: cell-based; settings: 120 h, 5 days with test compound
How it was run: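 Cells in RPMI 1640 with 10% FBS were preincubated 24 h at 37° C., 5% CO2, then exposed to compound for 5 days. Growth read by WST-8 at 450 nm minus 630 nm, cell-free background subtracted. IC50 derived relative to untreated control.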

[4] = system: human prostate (carcinoma) cell line (DU 145); test: Growth inhibition of DU 145 cells, WST-8 assay; type: cell-based; settings: 120 h, 5 days with test compound
How it was run: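 DU 145 cells in RPMI 1640 with 10% FBS were pre-incubated 24 h at 37° C, 5% CO2, then exposed to compound for 5 days. Growth was read by WST-8 reduction (OD 450 minus 630 nm, cell-free blank subtracted). IC50 was taken relative to untreated control.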

[5] = system: human prostate (adenocarcinoma) cell line (PC-3); test: Growth inhibition of PC-3 cells, WST-8 assay; type: cell-based; settings: 120 h, 5 days with test compound
How it was run: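 Cells seeded in RPMI 1640 with 10% FBS, grown 24 h at 37 °C, 5% CO2, then exposed to compound for 5 days. WST-8 read-out, OD 450 nm minus 630 nm reference, cell-free blank subtracted. IC50 (nM) from growth relative to compound-free control.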

[6] = system: human breast cancer cell line (MDA-MB-468); test: Growth inhibition of MDA-MB-468 cells, sulforhodamine B method; type: cell-based; settings: 120 h, 5 days with test compound
How it was run: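 MDA-MB-468 cells in DMEM/10% FBS were incubated 24 h at 37° C., then exposed to compound for 5 days. After TCA fixation and sulforhodamine B staining, OD 492 nm minus 690 nm was read with cell-free background subtracted. IC50 was set against untreated control.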

[7] = system: human hepatic cancer cell line (HuH-7); test: Growth inhibition of HuH-7 cells, sulforhodamine B method; type: cell-based; settings: Homo sapiens, 120 h, 5 days with test compound
Protocol: Growth inhibition of a human breast cancer cell line (MDA-MB-468) was determined by the sulforhodamine B method based on the method of Skehan P. et al. (J Natl Cancer Inst. 1990 Jul. 4; 82(13): 1107-12). In the study, MDA-MB-468 cells were seeded on DMEM medium containing 10% fetal bovine serum in a 96-well microplate. After 24-h incubation at 37° C. in the presence of 5% carbon dioxide, the test compound was added and the cells were incubated for another 5 days. After incubation, a trichloroacetic acid solution was added to yield the final concentration of 10% and the cells were left to stand at 4° C. for 1 hour to fix. Then, the cells were washed with water to remove the medium and trichloroacetic acid and dried in the air. The dried cells were stored at 4° C. until they were stained with sulforhodamine B. To each well, 1% acetic acid solution containing 0.4% sulforhodamine B was added and left to stand for 20 to 30 minutes at room temperature. After discarding the supernatant, each well was washed with 1% acetic acid solution, and 10 mM Tris([…]) solution was added while stirring to elute the dye taken into the cells. Then, the optical density was determined at the measurement wavelength of 492 nm and the reference wavelength of 690 nm, and the difference was calculated. The cell growth activity in each well was defined as the value determined by subtracting the OD in the control well not containing cells (the difference in absorbance between 492 nm and 690 nm) from that in the test well.
The 50% inhibitory concentration (IC50 (nM)) of the test compound was determined by comparing the cell growth activity in the well containing the test compound with that of the control not containing the test compound.
The growth inhibition on a human hepatic cancer cell line (HuH-7) was also determined by the above method.

[8] = system: Human prostate cancer cells (LNCaP-Bic); test: Antitumor effect on LNCaP-Bic tumors transplanted in nude mice, tumor weight; type: in vivo; settings: Mus musculus, po, 336 h, 10 mg/kg/day orally, once daily, 14 consecutive days, read-out: T/C(%) (10 mg/kg/day), tumor weight treated/control
Protocol: (§1) Human prostate cancer cells (LNCaP-Bic) were transplanted in nude mice (6 males/group) and the inhibitory effect of the invention on their growth was examined. In the study, the tumor cell suspension with matrigel was inoculated at 0.12 mL/body (2.4×10^6 cells/body) into the subcutaneous space of the right axillary region to prepare tumor bearing mice. When the tumor diameter became 5 mm or more, the animals were allocated to groups based on the tumor volume. The test compound was administered orally as a suspension in 5% gum arabic, once daily, for 14 consecutive days. The control group received 5% gum arabic. Tumor volumes were measured on the following day of the last administration. Tumors were removed and the wet weight of the tumor was measured using an electronic balance. The ratio of the tumor weight in the treated group to that in the control group (T/C %) was calculated as the index for the effect. T/C %=(Mean tumor weight in the treatment group/Mean tumor weight in the control group)×100.

PSA = test: Plasma levels of PSA in LNCaP-Bic tumor bearing nude mice, ELISA; type: in vivo; settings: Mus musculus, po, 336 h; 10 mg/kg/day orally, once daily, 14 consecutive days; plasma PSA by ELISA; read-out: T/C(%) (10 mg/kg/day), plasma levels of PSA treated/control
Protocol: as §1
The heparinized blood was collected from the postcava under diethylether anesthesia. The plasma levels of PSA were measured using ELISA. The ratio of the plasma levels of PSA in the treated group to that in the control group (T/C %) was calculated as the index for the effect. T/C %=(Mean plasma levels of PSA in the treatment group/Mean plasma levels of PSA in the control group)×100.

| SMILES | IC50 [1] [nM] | IC50 [2] [nM] | IC50 [3] [nM] | IC50 [4] [nM] | IC50 [5] [nM] | IC50 [6] [nM] | IC50 [7] [nM] | melting point [°C] | response vs control in vivo at 10 mg/kg [8] [%] | response vs control in vivo at 10 mg/kg (PSA) [%] |
| --- | --- | --- | --- | --- | --- | --- | --- | --- | --- | --- |
| Cc1cc(/C=C/C(=O)N2CCN(Cc3ccc(CCOc4ccc(C(C)C)cc4)cc3)CC2)cc(Cl)c1Oc1ccc(OCc2ccc(F)cc2)cn1 [Example 438, (E)-3-[3-Chloro-4-({5-[(4-fluorobenzyl)oxy]pyridin-2-yl}oxy)-5-methylphenyl]-1-[4-(4-{2-[4-(propan-2-yl)phenoxy]ethyl}benzyl)piperazin-1-yl]prop-2-en-1-one hydrochloride] | < 10 | < 10 | < 10 | < 10 | < 10 | < 10 | < 10 |  | < 50 | < 50 |
| COc1ccc(OCCc2ccc(CN3CCN(C(=O)/C=C/c4cc(C)c(Oc5ccc(OCc6ccc(C)cc6)cn5)c(Cl)c4)CC3)cc2)cc1.Cl [Example 440, (E)-3-[3-Chloro-5-methyl-4-({5-[(4-methylbenzyl)oxy]pyridin-2-yl}oxy)phenyl]-1-(4-{4-[2-(4-methoxyphenoxy)ethyl]benzyl}piperazin-1-yl)prop-2-en-1-one hydrochloride] | < 10 | < 10 | < 10 | < 10 | < 10 |  |  | 225.1 to 226.6 | < 50 | < 50 |
| Cc1ccc(COc2ccc(Oc3c(C)cc(/C=C/C(=O)N4CCN(Cc5ccc(CCOc6ccc(F)cc6)cc5)CC4)cc3Cl)nc2)cc1.Cl [Example 430, (E)-3-[3-Chloro-5-methyl-4-({5-[(4-methylbenzyl)oxy]pyridin-2-yl}oxy)phenyl]-1-(4-{4-[2-(4-fluorophenoxy)ethyl]benzyl}piperazin-1-yl)prop-2-en-1-one hydrochloride] | < 10 | < 10 | < 10 | < 10 | < 10 | < 10 | < 10 | 227.1 to 227.2 | < 50 | < 50 |
| Cc1ccc(COc2ccc(Oc3c(C)cc(/C=C/C(=O)N4CCN(Cc5ccc(CCOc6ccc(C)cc6)cc5)CC4)cc3Cl)nc2)cc1.Cl [Example 432, (E)-3-[3-Chloro-5-methyl-4-({5-[(4-methylbenzyl)oxy]pyridin-2-yl}oxy)phenyl]-1-(4-{4-[2-(4-methylphenoxy)ethyl]benzyl}piperazin-1-yl)prop-2-en-1-one hydrochloride] | < 10 | < 10 | < 10 | < 10 | < 10 | < 10 | < 10 | 232.1 to 232.7 | < 50 | < 50 |
| Cc1ccc(OCCc2ccc(CN3CCN(C(=O)/C=C/c4cc(C)c(Oc5ccc(OCc6ccc(Cl)cc6)cn5)c(Cl)c4)CC3)cc2)cc1.Cl [Example 777, (E)-3-[3-chloro-4-({5-[(4-chlorobenzyl)oxy]pyridin-2-yl}oxy)-5-methylphenyl]-1-(4-{4-[2-(4-methylphenoxy)ethyl]benzyl}piperazin-1-yl)prop-2-en-1-one hydrochloride] | < 10 | < 10 | < 10 | < 10 | < 10 | < 10 | < 10 | 220.1 to 220.3 | < 50 | < 50 |

More lines, main results first:

| IC50 [1] [nM] | IC50 [2] [nM] | IC50 [3] [nM] | IC50 [4] [nM] | IC50 [5] [nM] | IC50 [6] [nM] | IC50 [7] [nM] | melting point [°C] | SMILES | response vs control in vivo at 10 mg/kg [8] [%] | response vs control in vivo at 10 mg/kg (PSA) [%] |
| --- | --- | --- | --- | --- | --- | --- | --- | --- | --- | --- |
| < 10 | < 10 | < 10 | < 10 | < 10 | < 10 | < 10 |  | Cc1ccc(COc2ccc(Oc3c(C)cc(/C=C/C(=O)N4CCN(Cc5ccc(CCOc6ccc(Cl)cc6)cc5)CC4)cc3Cl)nc2)cc1 [Example 408, (E)-3-[3-chloro-5-methyl-4-({5-[(4-methylbenzyl)oxy]pyridin-2-yl}oxy)phenyl]-1-(4-{4-[2-(4-chlorophenoxy)ethyl]benzyl}piperazin-1-yl)prop-2-en-1-one hydrochloride] | < 50 | < 50 |
| < 10 | < 10 | < 10 | < 10 | < 10 |  |  | 224.4 to 228.8 | Cc1cc(/C=C/C(=O)N2CCN(Cc3ccc(CCOc4ccc(F)cc4)cc3)CC2)cc(Cl)c1Oc1ccc(OCc2ccc(Cl)cc2)cn1.Cl [Example 429, (E)-3-[3-Chloro-4-({5-[(4-chlorobenzyl)oxy]pyridin-2-yl}oxy)-5-methylphenyl]-1-(4-{4-[2-(4-fluorophenoxy)ethyl]benzyl}piperazin-1-yl)prop-2-en-1-one hydrochloride] | < 50 | < 50 |
| < 10 | < 10 | < 10 | < 10 | < 10 | < 10 | < 10 | 214.3 to 216.2 | Cc1cc(/C=C/C(=O)N2CCN(Cc3ccc(CCOc4ccc(F)cc4)cc3)CC2)cc(Cl)c1Oc1ccc(OCc2ccc(F)cc2)cn1.Cl [Example 435, (E)-3-[3-Chloro-4-({5-[(4-fluorobenzyl)oxy]pyridin-2-yl}oxy)-5-methylphenyl]-1-(4-{4-[2-(4-fluorophenoxy)ethyl]benzyl}piperazin-1-yl)prop-2-en-1-one hydrochloride] | < 50 | < 50 |
